Legend:
Acetylcholinesterase [1] = biological target: T1, Acetylcholinesterase (Rattus norvegicus, UniProt P37136)
T1 sequence (P37136 whole entry): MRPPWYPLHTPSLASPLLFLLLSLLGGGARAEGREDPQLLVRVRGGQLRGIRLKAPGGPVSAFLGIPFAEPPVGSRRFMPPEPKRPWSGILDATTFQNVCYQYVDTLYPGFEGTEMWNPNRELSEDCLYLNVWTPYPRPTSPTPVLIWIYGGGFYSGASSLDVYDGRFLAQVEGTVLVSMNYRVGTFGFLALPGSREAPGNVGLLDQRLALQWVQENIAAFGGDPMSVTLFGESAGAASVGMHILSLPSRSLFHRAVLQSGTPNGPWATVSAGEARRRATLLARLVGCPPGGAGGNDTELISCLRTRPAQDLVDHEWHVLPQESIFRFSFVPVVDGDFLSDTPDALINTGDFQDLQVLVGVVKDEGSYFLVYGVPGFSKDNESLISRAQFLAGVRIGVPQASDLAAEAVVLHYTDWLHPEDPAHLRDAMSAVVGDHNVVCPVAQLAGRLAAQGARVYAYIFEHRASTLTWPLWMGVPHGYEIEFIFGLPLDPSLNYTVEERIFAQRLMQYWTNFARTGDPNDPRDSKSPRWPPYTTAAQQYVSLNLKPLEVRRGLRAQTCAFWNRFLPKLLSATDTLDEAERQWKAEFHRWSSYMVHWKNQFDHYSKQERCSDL
Description: Inhibitory activity against acetylcholinesterase in rat brain

Acetylcholinesterase [2] = biological target: Acetylcholinesterase (Homo sapiens, UniProt P22303)
Chain of Acetylcholinesterase (Homo sapiens, UniProt P22303) (P22303 whole entry): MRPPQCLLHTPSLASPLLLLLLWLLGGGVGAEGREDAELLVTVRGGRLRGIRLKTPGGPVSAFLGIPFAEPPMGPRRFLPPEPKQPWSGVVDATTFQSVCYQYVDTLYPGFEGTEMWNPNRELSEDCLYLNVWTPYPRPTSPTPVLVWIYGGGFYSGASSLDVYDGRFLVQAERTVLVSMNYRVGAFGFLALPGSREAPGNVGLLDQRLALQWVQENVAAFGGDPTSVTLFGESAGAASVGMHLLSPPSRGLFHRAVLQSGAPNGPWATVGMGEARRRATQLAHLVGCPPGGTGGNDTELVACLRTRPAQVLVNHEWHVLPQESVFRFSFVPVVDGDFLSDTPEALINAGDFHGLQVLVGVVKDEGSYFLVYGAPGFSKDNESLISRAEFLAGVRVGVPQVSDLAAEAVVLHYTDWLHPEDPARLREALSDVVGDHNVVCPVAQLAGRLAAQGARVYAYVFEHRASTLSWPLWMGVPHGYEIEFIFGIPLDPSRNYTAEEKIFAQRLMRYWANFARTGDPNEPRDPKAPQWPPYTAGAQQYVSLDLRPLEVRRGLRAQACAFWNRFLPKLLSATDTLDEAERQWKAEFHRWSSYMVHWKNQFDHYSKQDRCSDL
Description: Inhibitory activity against acetylcholinesterase in human RBC

| SMILES | IC50 (Acetylcholinesterase [1]) | IC50 (Acetylcholinesterase [2]) |
| --- | --- | --- |
| Clc1cccc2c1CN1CCCCCC1=N2 | 4.75 µM | – |
| c1ccc2c(c1)CN1CCCCCCC1=N2 | 100 µM | 9.2 µM |
| c1ccc2c(c1)CN1CCCCC1=N2 | > 100 µM | 3.66 µM |
| O=c1c2ccc(Cl)cc2nc2n1CCCCC2 | > 100 µM | > 100 µM |
| c1ccc2c(c1)CN1CCCCCC1=N2 | 15 µM | 3.76 µM |
| Clc1ccc2c(c1)CN1CCCCCC1=N2 | 9.3 µM | – |
| N=c1c2ccc(Cl)cc2nc2n1CCCCC2 | 35.9 µM | – |
| c1ccc2c(c1)CN1CCCCCCCC1=N2 | > 100 µM | 13.5 µM |
| S=c1c2ccc(Cl)cc2nc2n1CCCCC2 | > 100 µM | > 100 µM |
| c1ccc2c(c1)CN1CCCC1=N2 | 18 µM | 3.72 µM |
| CCCCCCCNC(=O)Oc1ccc2c(c1)[C@]1(C)CCN(C)[C@@H]1N2C [EPTASTIGMINE] | 0.6 µM | 0.125 µM |
| C/C=C1\[C@H]2C=C(C)C[C@]1(N)c1ccc(=O)[nH]c1C2 [HUPERZINE A] | 0.094 µM | – |

Reference: ChEMBL document CHEMBL1150531, “Acetylcholinesterase inhibition by fused dihydroquinazoline compounds” (Bioorg Med Chem Lett, 1996)
